Experimental data reported in US20130280260A1, “OSTEOCLASTOGENESIS INHIBITOR CONTAINING ANTI-VDAC ANTIBODY” (TOKYO WOMEN'S MEDICAL UNIVERSITY, priority 2010, published 2013).

Experiments:
human osteoclasts = assay: Inhibition of osteoclast differentiation and osteoclastogenesis in human osteoclastogenesis culture system (monocytes with M-CSF and RANKL); assay type: cell-based; conditions: 0.2 μg/mL or 2 μg/mL, in comparison with the control
Method: • (1) Preparation of Monoclonal Antibodies against Cell Membrane Proteins of Osteoclasts • (i) Peripheral blood monocytes from five healthy subjects were cultured in flasks in the presence of M-CSF and RANKL for approximately 2 weeks and differentiated into osteoclasts. After trypsin and EDTA were added to the human osteoclasts, the resulting cells were cultured at 37° C. for 15 minutes, and then detached with a cell scraper and harvested. This operation was repeated to collect cell membranes of human mature osteoclasts. Membrane proteins were prepared from the human mature osteoclasts using a RIPA buffer. • (ii) Using the obtained membrane proteins as an antigen, mice were immunized. Spleen cells of the mice thus immunized were fused with myeloma cells, and four types of hybridomas were obtained. Screening was performed by ELISA using a plate on which the osteoclast membrane proteins were immobilized. The wells of the positive result were further examined for a reactivity to human osteoclasts and a nonspecific reactivity to monocytes. After cloning, 5D1/2B9/2H10 and 5D1/3F3/2C8 were obtained as final lines. • (iii) From these final lines, monoclonal antibodies were obtained. • (2) Purification of Proteins Bound to Antibody Column
• (1) Into the human osteoclastogenesis culture system obtained in step 1. […]

[1] = test system: monoclonal antibody 20B12 (anti-VDAC1); assay: Epitope analysis by ELISA using synthetic peptides covering VDAC1; assay type: binding, mouse; conditions: for OD450-595: 20B12 at 5 μg/mL, average of two wells; for reaction between peptide and antibody (ELISA): text summary of Tables 2, 3
Method: In order to examine an epitope for the anti-VDCA monoclonal antibody (VDAC1(20B12), SANTA CRUZ Biotechnology, Inc., sc-58649, mouse monoclonal IgG2b, 100 μg/ml), an analysis was conducted by ELISA using synthetic peptides (Table 1). As the synthetic peptides, 28 types of peptides were prepared so as to cover the VDAC1 completely.
The synthetic peptides were fixed to plates by an avidin-biotin method as follows.
The synthetic peptides (325 nmol/peptide) were each dissolved in 250 μL of DMSO, and then diluted 6400-fold with Wash Buffer (PBS containing 0.05% Tween-20). After a streptavidin-coated plate was washed with Wash Buffer (350 μL, 3 times), 100 μL of the peptide thus diluted was added into the plate, which was left standing in cold storage overnight.
ELISA was performed using the plate to which the peptide was fixed in 7.1, and antibodies bound to the peptide were detected. The detection procedure was as follows. Two wells were used for one condition, and the average was taken. • (1) The liquid in wells was taken out. After washing with Wash Buffer (350 μL, three times), 200 μL of Blocking Buffer (SynBlock) was added to the wells, which were shaken at 37° C. for 1 hour. • (2) The liquid in the wells was taken out, and 50 μL of the monoclonal antibody 20B12 (diluted to 5 μg/mL with Blocking Buffer) was added to the wells, which were shaken at 37° C. for 1 hour. • (3) The liquid in the wells was taken out. After washing with Wash Buffer, 50 μL of HRP-labeled Goat anti Mouse IgG (Fc) (the original solution had been diluted 25000-fold with Wash Buffer) was added to the wells, which were shaken at 37° C. for 1 hour. • (4) The liquid in the wells was taken out, and the plate was washed. Then, 60 μL of a staining solution was added to the plate, which was incubated at 37° C. for 30 minutes. After 60 μL of a stop solution was added thereto to stop the color reaction, the absorbance at 450 nm (Reference 595 nm) was measured with a plate reader.

| Molecule | osteoclastogenesis (total area of osteoclasts) (human osteoclasts) | OD450-595 ([1]; first time) | OD450-595 ([1]; second time) | reaction between peptide and antibody (ELISA) [1] |
| --- | --- | --- | --- | --- |
| NCCCC(O)(P(=O)(O)O)P(=O)(O)O [alendronate sodium hydrate] | significantly inhibited | – | – | – |
| ACFSAKVNNS SLIGLGYTQT (ACFSAKVNNSSLIGLGYTQT) [Peptide 24, synthetic peptide covering part of VDAC1] | – | 1.284 | 1.336 | significant |
| AGYQMNFETA KSRVTQSNFA (AGYQMNFETAKSRVTQSNFA) [Peptide 16, synthetic peptide covering part of VDAC1] | – | 0.388 | 0.444 | – |
| ALLDGKNVNA GGHKLGLGLE (ALLDGKNVNAGGHKLGLGLE) [Peptide 27, synthetic peptide covering part of VDAC1] | – | 0.290 | 0.371 | – |
| ALVLGYEGWL AGYQMNFETA (ALVLGYEGWLAGYQMNFETA) [Peptide 15, synthetic peptide covering part of VDAC1] | – | 0.337 | 0.373 | – |
| EHINLGCDMD FDIAGPSIRG (EHINLGCDMDFDIAGPSIRG) [Peptide 13, synthetic peptide covering part of VDAC1] | – | 0.369 | 0.322 | – |
| FDIAGPSIRG ALVLGYEGWL (FDIAGPSIRGALVLGYEGWL) [Peptide 14, synthetic peptide covering part of VDAC1] | – | 0.316 | 0.385 | – |
| FTEKWNTDNT LGTEITVEDQ (FTEKWNTDNTLGTEITVEDQ) [Peptide 8, synthetic peptide covering part of VDAC1] | – | 0.341 | 0.411 | – |
| FTSSGSANTE TTKVTGSLET (FTSSGSANTETTKVTGSLET) [Peptide 5, synthetic peptide covering part of VDAC1] | – | 0.311 | 0.351 | – |
| GGHKLGLGLE FQA (GGHKLGLGLEFQA) [Peptide 28, synthetic peptide covering part of VDAC1] | – | 0.418 | 0.455 | – |
| GGSIYQKVNK KLETAVNLAW (GGSIYQKVNKKLETAVNLAW) [Peptide 20, synthetic peptide covering part of VDAC1] | – | 0.362 | 0.398 | – |
| GKSARDVFTK GYGFGLIKLD (GKSARDVFTKGYGFGLIKLD) [Peptide 2, synthetic peptide covering part of VDAC1] | – | 0.363 | 0.421 | – |
| GYGFGLIKLD LKTKSENGLE (GYGFGLIKLDLKTKSENGLE) [Peptide 3, synthetic peptide covering part of VDAC1] | – | 0.280 | 0.354 | – |
| HTNVNDGTEF GGSIYQKVNK (HTNVNDGTEFGGSIYQKVNK) [Peptide 19, synthetic peptide covering part of VDAC1] | – | 0.300 | 0.312 | – |
| IAAKYQIDPD ACFSAKVNNS (IAAKYQIDPDACFSAKVNNS) [Peptide 23, synthetic peptide covering part of VDAC1] | – | 0.276 | 0.357 | – |
| KLETAVNLAW TAGNSNTRFG (KLETAVNLAWTAGNSNTRFG) [Peptide 21, synthetic peptide covering part of VDAC1] | – | 0.235 | 0.270 | – |
| KSRVTQSNFA VGYKTDEFQL (KSRVTQSNFAVGYKTDEFQL) [Peptide 17, synthetic peptide covering part of VDAC1] | – | 0.285 | 0.308 | – |
| KYRWTEYGLT FTEKWNTDNT (KYRWTEYGLTFTEKWNTDNT) [Peptide 7, synthetic peptide covering part of VDAC1] | – | 0.321 | 0.371 | – |
| LARGLKLTFD SSFSPNTGKK (LARGLKLTFDSSFSPNTGKK) [Peptide 10, synthetic peptide covering part of VDAC1] | – | 0.360 | 0.351 | – |
| LGTEITVEDQ LARGLKLTFD (LGTEITVEDQLARGLKLTFD) [Peptide 9, synthetic peptide covering part of VDAC1] | – | 0.286 | 0.338 | – |
| LKPGIKLTLS ALLDGKNVNA (LKPGIKLTLSALLDGKNVNA) [Peptide 26, synthetic peptide covering part of VDAC1] | – | 0.268 | 0.367 | – |
| LKTKSENGLE FTSSGSANTE (LKTKSENGLEFTSSGSANTE) [Peptide 4, synthetic peptide covering part of VDAC1] | – | 0.312 | 0.423 | – |
| MAVPPTYADL GKSARDVFTK (MAVPPTYADLGKSARDVFTK) [Peptide 1, synthetic peptide covering part of VDAC1] | – | 0.448 | 0.443 | – |
| NAKIKTGYKR EHINLGCDMD (NAKIKTGYKREHINLGCDMD) [Peptide 12, synthetic peptide covering part of VDAC1] | – | 0.345 | 0.375 | – |
| SLIGLGYTQT LKPGIKLTLS (SLIGLGYTQTLKPGIKLTLS) [Peptide 25, synthetic peptide covering part of VDAC1] | – | 0.590 | 0.679 | weak reaction |
| SSFSPNTGKK NAKIKTGYKR (SSFSPNTGKKNAKIKTGYKR) [Peptide 11, synthetic peptide covering part of VDAC1] | – | 0.319 | 0.361 | – |
| TAGNSNTRFG IAAKYQIDPD (TAGNSNTRFGIAAKYQIDPD) [Peptide 22, synthetic peptide covering part of VDAC1] | – | 0.318 | 0.319 | – |
| TTKVTGSLET KYRWTEYGLT (TTKVTGSLETKYRWTEYGLT) [Peptide 6, synthetic peptide covering part of VDAC1] | – | 0.358 | 0.363 | – |
| VGYKTDEFQL HTNVNDGTEF (VGYKTDEFQLHTNVNDGTEF) [Peptide 18, synthetic peptide covering part of VDAC1] | – | 0.275 | 0.305 | – |
